Key:
[1] = biological target: T1, Estrogen receptor beta (Homo sapiens, UniProt Q92731)
[2] = biological target: T2, Estrogen receptor (Homo sapiens, UniProt P03372)
T2 sequence (P03372 whole entry): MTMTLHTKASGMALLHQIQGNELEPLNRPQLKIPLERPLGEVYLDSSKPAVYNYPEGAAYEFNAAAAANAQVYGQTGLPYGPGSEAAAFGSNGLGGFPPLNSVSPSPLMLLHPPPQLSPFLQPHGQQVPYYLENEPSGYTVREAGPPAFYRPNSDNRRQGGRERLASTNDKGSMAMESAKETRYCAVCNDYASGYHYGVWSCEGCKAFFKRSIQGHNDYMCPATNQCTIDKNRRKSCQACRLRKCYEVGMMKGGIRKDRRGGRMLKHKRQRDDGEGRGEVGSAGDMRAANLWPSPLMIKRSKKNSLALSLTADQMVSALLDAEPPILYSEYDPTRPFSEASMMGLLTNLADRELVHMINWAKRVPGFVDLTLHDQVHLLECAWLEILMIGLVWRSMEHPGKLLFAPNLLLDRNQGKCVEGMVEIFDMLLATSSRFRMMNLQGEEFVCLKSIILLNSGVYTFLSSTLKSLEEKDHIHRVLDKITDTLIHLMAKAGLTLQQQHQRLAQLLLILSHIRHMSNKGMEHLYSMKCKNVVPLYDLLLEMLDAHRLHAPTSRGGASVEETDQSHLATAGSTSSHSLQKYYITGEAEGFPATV

[3] = biological target: T2, Estrogen receptor; remark: listed apart in the source
Description: Antagonist activity at full length human ERalpha receptor assessed as inhibition of estradiol-induced activation incubated for 22 to 24 hrs by cell based luciferase reporter gene assay

[4] = biological target: T1, Estrogen receptor beta; remark: listed apart in the source
Description: Antagonist activity at full length human ERbeta receptor assessed as inhibition of estradiol-induced activation incubated for 22 to 24 hrs by cell based luciferase reporter gene assay

[5] = biological target: T1, Estrogen receptor beta; remark: listed apart in the source
Description: Agonist activity at full length human ERbeta receptor assessed as transcriptional activity incubated for 22 to 24 hrs by cell based luciferase reporter gene assay

[6] = biological target: T1, Estrogen receptor beta; assay: Displacement of fluormone from GST-tagged ERbeta receptor LBD (unknown origin) measured after 60 mins by TR-FRET competitive binding assay relative to control; settings: filed as agonist
[7] = biological target: T3, Estrogen receptor (Homo sapiens) (UniProt P03372); assay: Agonist activity at full length human ERalpha receptor assessed as transcriptional activity incubated for 22 to 24 hrs by cell based luciferase reporter gene assay relative to control; settings: filed as agonist
T3 sequence (whole entry): T2 sequence (P03372 whole entry)

T1 sequence (Q92731 whole entry): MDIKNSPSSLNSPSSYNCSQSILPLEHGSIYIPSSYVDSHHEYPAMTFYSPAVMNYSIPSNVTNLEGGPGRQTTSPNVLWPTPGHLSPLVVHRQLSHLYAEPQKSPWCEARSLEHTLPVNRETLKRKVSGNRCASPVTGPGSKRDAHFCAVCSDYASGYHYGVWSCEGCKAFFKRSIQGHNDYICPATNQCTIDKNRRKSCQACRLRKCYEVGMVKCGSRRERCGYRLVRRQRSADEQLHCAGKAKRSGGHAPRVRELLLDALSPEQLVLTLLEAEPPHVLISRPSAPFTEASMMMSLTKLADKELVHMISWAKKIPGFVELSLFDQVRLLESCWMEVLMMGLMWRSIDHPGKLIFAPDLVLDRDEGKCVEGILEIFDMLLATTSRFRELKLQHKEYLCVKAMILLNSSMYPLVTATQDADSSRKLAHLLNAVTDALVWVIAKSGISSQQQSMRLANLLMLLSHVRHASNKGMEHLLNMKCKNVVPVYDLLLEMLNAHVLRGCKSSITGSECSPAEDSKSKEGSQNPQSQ

Row | Compound | EC50 [1] [nM] | EC50 [2] [nM] | EC50 [3] [nM] | EC50 [4] [nM] | EC50 [5] [nM] | Activity [6] [%] | Activity [7] [%]
1 | C[C@]12CC[C@@H]3c4ccc(O)cc4CC[C@H]3[C@@H]1CC[C@@]2(O)c1cn(CCO)nn1 | 50 | 149 | > 10000 | > 10000 | 16 | – | –
2 | C[C@]12CC[C@]3(C#N)c4ccc(O)cc4CC[C@H]3[C@@H]1CCC2=O | 78 | 88 | > 10000 | > 5000 | 9 | – | –
3 | C[C@]12CC[C@]3(C#N)c4ccc(O)cc4CC[C@H]3[C@@H]1CC[C@@]2(O)c1cn(CCO)nn1 | 4400 | – | – | – | – | – | –
4 | C[C@]12CC[C@@H]3c4ccc(O)cc4CC[C@H]3[C@@H]1CC[C@@]2(O)c1cn(-c2cccc(O)c2)nn1 | 12 | 68 | > 1000 | > 10000 | 21 | 60 | 46
5 | C[C@]12CC[C@@H]3c4ccc(O)cc4CC[C@H]3[C@@H]1CC[C@@]2(O)c1cn(-c2ccccc2)nn1 | – | 5 | > 1000 | – | – | – | –
6 | C[C@]12CC[C@]3(C#N)c4ccc(O)cc4CC[C@H]3[C@@H]1CC[C@@H]2O | 0.27 | 0.38 | > 5000 | > 25 | 0.029 | – | –
7 | C#C[C@]1(O)CC[C@H]2[C@@H]3CCc4cc(O)ccc4[C@@]3(C#N)CC[C@@]21C | 51 | 22 | > 10000 | > 10000 | 14 | – | –
8 | C[C@]12CC[C@@H]3c4ccc(O)cc4CC[C@H]3[C@@H]1CC[C@@]2(O)c1cn(-c2ccc(O)cc2)nn1 | 0.65 | 0.87 | > 10000 | > 10000 | 0.81 | – | –
